Measurements taken from the supplement of paper PMC10307832.

How the values were obtained:
Test in all cases: relative viability (nuclei count vs DMSO), 5 days (fraction); higher = more cells survive
NCI-H2347 = tested on: NCI-H2347
Procedure, shortened: (§1)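 Nuclei were stained with Hoechst during a one-step fixation (final 0.05% Triton X-100, 1% formaldehyde, 1 ug/ml Hoechst) carried out 5 days after dosing, then counted on 4× images. The cells, lung cancer lines in 1536-well plates, had been dosed by pin tool the day after seeding with one drug alone or a fixed anchor-drug dose plus five library-drug doses (not always all listed) in √10 steps. Relative viability is the nuclei count in treated wells divided by that in vehicle wells, and each value is the median of duplicate plates.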

COR-L23 = tested on: COR-L23
Procedure, shortened: as §1

HOP-62 = tested on: HOP-62
Procedure, shortened: as §1

NCI-H1993 = tested on: NCI-H1993
Procedure, shortened: as §1

NCI-H647 = tested on: NCI-H647
Procedure, shortened: as §1

SK-MES-1 = tested on: SK-MES-1
Procedure, shortened: as §1

NCI-H1792 = tested on: NCI-H1792
Procedure, shortened: as §1

NCI-H522 = tested on: NCI-H522
Procedure, shortened: as §1

NCI-H1734 = tested on: NCI-H1734
Procedure, shortened: as §1

COR-L 105 = tested on: COR-L 105
Procedure, shortened: as §1

NCI-H2228 = tested on: NCI-H2228
Procedure, shortened: as §1

UMC-11 = tested on: UMC-11
Procedure, shortened: as §1

NCI-H1395 = tested on: NCI-H1395
Procedure, shortened: as §1

HARA = tested on: HARA
Procedure, shortened: as §1

NCI-H1755 = tested on: NCI-H1755
Procedure, shortened: as §1

NCI-H838 = tested on: NCI-H838
Procedure, shortened: as §1

NCI-H1793 = tested on: NCI-H1793
Procedure, shortened: as §1

NCI-H2170 = tested on: NCI-H2170
Procedure, shortened: as §1

NCI-H358 = tested on: NCI-H358
Procedure, shortened: as §1

HCC-15 = tested on: HCC-15
Procedure, shortened: as §1

NCI-H2009 = tested on: NCI-H2009
Procedure, shortened: as §1

NCI-H1355 = tested on: NCI-H1355
Procedure, shortened: as §1

O=c1cc(-c2cccc3c2Sc2ccccc2S3)oc(N2CCOCC2)c1 + N=C(N)NC(=N)NCCc1ccccc1 [Phenformin] (partner 250 µM)
relative viability (NCI-H2347; first compound 0.08 µM): 0.541 | relative viability (NCI-H2347; first compound 0.253 µM): 0.501 | relative viability (NCI-H2347; first compound 0.8 µM): 0.416 | relative viability (NCI-H2347; first compound 2.53 µM): 0.279 | relative viability (NCI-H2347; first compound 8 µM): 0.362 | relative viability (COR-L23; first compound 0.08 µM): 0.478 | relative viability (COR-L23; first compound 0.253 µM): 0.484 | relative viability (COR-L23; first compound 0.8 µM): 0.511 | relative viability (COR-L23; first compound 2.53 µM): 0.459 | relative viability (COR-L23; first compound 8 µM): 0.545 | relative viability (HOP-62; first compound 0.08 µM): 0.714 | relative viability (HOP-62; first compound 0.253 µM): 0.899 | relative viability (HOP-62; first compound 0.8 µM): 0.688 | relative viability (HOP-62; first compound 2.53 µM): 0.663 | relative viability (HOP-62; first compound 8 µM): 0.799 | relative viability (NCI-H1993; first compound 0.08 µM): 0.494 | relative viability (NCI-H1993; first compound 0.253 µM): 0.52 | relative viability (NCI-H1993; first compound 0.8 µM): 0.589 | relative viability (NCI-H1993; first compound 2.53 µM): 0.565 | relative viability (NCI-H1993; first compound 8 µM): 0.56 | relative viability (NCI-H647; first compound 0.08 µM): 0.572 | relative viability (NCI-H647; first compound 0.253 µM): 0.838 | relative viability (NCI-H647; first compound 0.8 µM): 0.547 | relative viability (NCI-H647; first compound 2.53 µM): 0.476 | relative viability (NCI-H647; first compound 8 µM): 0.487 | relative viability (SK-MES-1; first compound 0.08 µM): 0.681 | relative viability (SK-MES-1; first compound 0.253 µM): 0.762 | relative viability (SK-MES-1; first compound 0.8 µM): 0.649 | relative viability (SK-MES-1; first compound 2.53 µM): 0.642 | relative viability (SK-MES-1; first compound 8 µM): 0.666 | relative viability (NCI-H1792; first compound 0.08 µM): 0.185 | relative viability (NCI-H1792; first compound 0.253 µM): 0.349 | relative viability (NCI-H1792; first compound 0.8 µM): 0.258 | relative viability (NCI-H1792; first compound 2.53 µM): 0.168 | relative viability (NCI-H1792; first compound 8 µM): 0.345 | relative viability (NCI-H522; first compound 0.08 µM): 0.56 | relative viability (NCI-H522; first compound 0.253 µM): 0.689 | relative viability (NCI-H522; first compound 0.8 µM): 0.622 | relative viability (NCI-H522; first compound 2.53 µM): 0.556 | relative viability (NCI-H522; first compound 8 µM): 0.67 | relative viability (NCI-H1734; first compound 0.08 µM): 0.36 | relative viability (NCI-H1734; first compound 0.253 µM): 0.45 | relative viability (NCI-H1734; first compound 0.8 µM): 0.417 | relative viability (NCI-H1734; first compound 8 µM): 0.436 | relative viability (COR-L 105; first compound 0.08 µM): 0.454 | relative viability (COR-L 105; first compound 0.253 µM): 0.471 | relative viability (COR-L 105; first compound 0.8 µM): 0.466 | relative viability (COR-L 105; first compound 2.53 µM): 0.507 | relative viability (COR-L 105; first compound 8 µM): 0.47 | relative viability (NCI-H2228; first compound 0.08 µM): 0.346 | relative viability (NCI-H2228; first compound 0.253 µM): 0.25 | relative viability (NCI-H2228; first compound 0.8 µM): 0.426 | relative viability (NCI-H2228; first compound 2.53 µM): 0.267 | relative viability (NCI-H2228; first compound 8 µM): 0.277 | relative viability (UMC-11; first compound 0.08 µM): 0.322 | relative viability (UMC-11; first compound 0.253 µM): 0.34 | relative viability (UMC-11; first compound 0.8 µM): 0.372 | relative viability (UMC-11; first compound 2.53 µM): 0.29 | relative viability (UMC-11; first compound 8 µM): 0.324 | relative viability (NCI-H1395; first compound 0.08 µM): 0.462 | relative viability (NCI-H1395; first compound 0.253 µM): 0.393 | relative viability (NCI-H1395; first compound 0.8 µM): 0.472 | relative viability (NCI-H1395; first compound 2.53 µM): 0.389 | relative viability (NCI-H1395; first compound 8 µM): 0.433 | relative viability (HARA; first compound 0.08 µM): 0.452 | relative viability (HARA; first compound 0.253 µM): 0.592 | relative viability (HARA; first compound 0.8 µM): 0.435 | relative viability (HARA; first compound 2.53 µM): 0.348 | relative viability (HARA; first compound 8 µM): 0.702 | relative viability (NCI-H1755; first compound 0.08 µM): 0.625 | relative viability (NCI-H1755; first compound 0.253 µM): 0.694 | relative viability (NCI-H1755; first compound 0.8 µM): 0.597 | relative viability (NCI-H1755; first compound 2.53 µM): 0.545 | relative viability (NCI-H1755; first compound 8 µM): 0.653 | relative viability (NCI-H838; first compound 0.08 µM): 0.517 | relative viability (NCI-H838; first compound 0.253 µM): 0.726 | relative viability (NCI-H838; first compound 0.8 µM): 0.488 | relative viability (NCI-H838; first compound 2.53 µM): 0.531 | relative viability (NCI-H838; first compound 8 µM): 0.503 | relative viability (NCI-H1793; first compound 0.08 µM): 0.344 | relative viability (NCI-H1793; first compound 0.253 µM): 0.398 | relative viability (NCI-H1793; first compound 0.8 µM): 0.347 | relative viability (NCI-H1793; first compound 2.53 µM): 0.306 | relative viability (NCI-H1793; first compound 8 µM): 0.279 | relative viability (NCI-H2170; first compound 0.08 µM): 0.427 | relative viability (NCI-H2170; first compound 0.253 µM): 0.444 | relative viability (NCI-H2170; first compound 0.8 µM): 0.431 | relative viability (NCI-H2170; first compound 2.53 µM): 0.319 | relative viability (NCI-H2170; first compound 8 µM): 0.444 | relative viability (NCI-H358; first compound 0.08 µM): 0.301 | relative viability (NCI-H358; first compound 0.253 µM): 0.436 | relative viability (NCI-H358; first compound 0.8 µM): 0.378 | relative viability (NCI-H358; first compound 2.53 µM): 0.362 | relative viability (NCI-H358; first compound 8 µM): 0.356 | relative viability (HCC-15; first compound 0.08 µM): 0.394 | relative viability (HCC-15; first compound 0.253 µM): 0.608 | relative viability (HCC-15; first compound 0.8 µM): 0.468 | relative viability (HCC-15; first compound 2.53 µM): 0.472 | relative viability (HCC-15; first compound 8 µM): 0.503 | relative viability (NCI-H2009; first compound 0.08 µM): 0.481 | relative viability (NCI-H2009; first compound 0.253 µM): 0.545 | relative viability (NCI-H2009; first compound 0.8 µM): 0.522 | relative viability (NCI-H2009; first compound 2.53 µM): 0.445 | relative viability (NCI-H2009; first compound 8 µM): 0.446 | relative viability (NCI-H1355; first compound 0.08 µM): 0.47 | relative viability (NCI-H1355; first compound 0.253 µM): 0.479 | relative viability (NCI-H1355; first compound 0.8 µM): 0.421 | relative viability (NCI-H1355; first compound 2.53 µM): 0.429 | relative viability (NCI-H1355; first compound 8 µM): 0.409
